Data set [1] is described as follows: MTT cytotoxicity assay on Vero cells. To be noted: MTT, calculated after 2 h of peptide treatment. It counts as cell-based.
Data set [2] deals with poliovirus Sb-1. The data set is classed as cell-based.
The test system of data set [3] is CV-B3. The data set can be described thus: Plaque reduction assay, CV-B3. To be noted: four experimental settings. It counts as cell-based, Enterovirus B (coxsackievirus B3, ATCC VR-688). A general note: Plaques are areas of infected cells; plaque reduction assays count them against a control.
For data set [4], the system named is human erythrocytes. To be noted: for hemolytic activity: at their antiviral concentrations. The protocol:
The hemolytic activity of the peptides was determined using fresh human erythrocytes from healthy donors as reported previously. Briefly, the blood was centrifuged, and the erythrocytes were washed three times with 0.9% NaCl. Peptides were added to the erythrocyte suspension (5% v/v), at a final concentration ranging from 0.1 to 100 μM in a final volume of 100 μL. The samples were incubated with agitation at 37 °C for 60 min. The release of hemoglobin was monitored by measuring the absorbance (Abs) of the supernatant at 540 nm. The control for zero hemolysis (blank) consisted of erythrocytes suspended in the presence of peptide solvent. Hypotonically lysed erythrocytes were used as a standard for 100% hemolysis. The percentage of hemolysis was calculated using the equation: % hemolysis = [(Abssample − Absblank)/(Abstotal lysis − Absblank)] × 100

The test system of data set [5] is peripheral blood mononuclear cells (PBMCs). The data set can be described thus: MTT cytotoxicity assay on PBMCs. It counts as cell-based, human. Particulars: 2 h and 24 h. The protocol:
Vero cells (ATCC CCL-81, Manassas, VA, USA) and Vero/hSLAM cells (ECACC 04091501, Porton Down, UK) and Madin Darby canine kidney (MDCK, CCL-34) were grown in Dulbecco’s Modified Eagle Medium (DMEM) with 4.5 g/L glucose (Microtech, Naples, Italy) supplemented with 100 IU/mL penicillin and 100 μg/mL streptomycin (Himedia, Naples, Italy) and 10% Fetal Bovine Serum (Microtech). PBMCs were isolated as follow. Buffy coats acquired from a healthy anonymous donor were used to isolate PBMCs on a Ficoll-Hypaque density gradient (Sigma-Aldrich) according to standard procedures. Then, PBMCs were grown (5 × 10^6/mL) in RPMI 1640 (Microtech) supplemented with 10% FBS, 60 IU/mL of interleukin-2 (IL-2, Sigma-Aldrich) and 2 µg/mL of phytohemagglutinin (PHA) (Sigma-Aldrich).
Vero cells were seeded in 96-well microtiter tissue culture plates (5 × 10^3 cells /well) and incubated for 24 h at 37 °C in 5% CO2. PBMCs were isolated and then cultured at a concentration of 1 × 10^5 cells/well.
The cytotoxicity for both cell types was evaluated by the MTT (Sigma-Aldrich) assay based on the reduction of the yellowish MTT to the insoluble and dark blue formazan by viable and metabolically active cells. Temporin-based peptides were tested at […] concentrations (0.1, 1, 6.25, 12.5, 25, 50 and 100 µM) after 2 and 24 h. At the end of incubation, 100 μL of an MTT solution (5 mg/mL) was added in each well and incubated for 3 h at 37 °C. The supernatant was discarded and 100 μL of DMSO 100% (Sigma Aldrich) was added (to dissolve the formazan salts) for 10 min with vigorous agitation at room temperature. Cytotoxicity was evaluated by spectrophotometric reading at 540 nm. The viability of Vero cells in each well was presented as a percentage of control cells. All experiments were performed in triplicate, and the means standard deviations are reported. Nonlinear regression analysis was performed using GraphPad Prism software (GraphPad Software, San Diego, CA, USA) to determine the CC50.
Background: Formazan colour is commonly taken as a measure of viable cells.

In data set [6] the test system is MeV. Particulars: for IC50 / IC90: 2 h.
Data set [7] has as its system influenza virus (subtype H1N1). Particulars: influenza virus (subtype, 2 h).
Data set [8] deals with HCoV-229E. To be noted: 2 h.
The conditions of data set [9]: cited from earlier work.
Data set [10] deals with HPIV-3. Particulars: 2 h.
Data set [11] deals with HCoV-OC43. Particulars: 2 h.

Read-outs that look alike come from different tables or passages of the source. Where a SMILES comes first, the peptide text is derived from it. [ ]: non-standard residue; d: D form. The star is where a group is joined. X1 = CC(C)CCC[C@@H](C)[C@H]1CC[C@H]2[C@@H]3CC=C4C[C@@H](OC(=O)CCOCCOCCOCCOCCNC(=O)C*)CC[C@]4(C)[C@H]3CC[C@]12C; dHyp = O=C(O)[C@H]1C[C@H](O)CN1; Undecanoyl = CCCCCCCCCCC(=O)*; Aic = NC1(C(=O)O)Cc2ccccc2C1; Nle = CCCC[C@H](N)C(=O)O

By CC50 is commonly meant the concentration giving 50% cytotoxicity. What is called IC50 is the point on the concentration scale where inhibition reaches its midpoint. A lower IC50 goes with greater potency in that assay. For orientation: IC90 means the concentration at which the effect reaches the 90% level. The low end stands for an effect from little substance, the high end for a need for much substance.

For `CC[C@H](C)[C@H](NC(=O)[C@H](CCCNC(=N)N)NC(=O)CNC(=O)[C@@H](CC(C)C)NC(=O)[C@H](Cc1ccccc1)NC(=O)[C@H](CCCCN)NC(=O)[C@H](CO)NC(=O)[C@H](Cc1ccccc1)NC(=O)[C@H](Cc1c[nH]c2ccccc12)NC(=O)[C@@H]1CCCN1C(=O)[C@@H](NC(=O)[C@@H](N)Cc1ccccc1)C(C)C)C(=O)N[C@@H](CC(C)C)C(N)=O` [TL1, H-Phe-Val-Pro-Trp-Phe-Ser-Lys-Phe-DLeu-Gly-Arg-Ile-Leu-NH2] (H-FVPWFSKF[dL]GRIL-NH2), the cytotoxic concentration (CC50) in data set [1] is 42.2 µM. Also, the “infectivity of poliovirus Sb-1 in the presence of peptide” value in [2] is “not altered”. The “infectivity of CV-B3 in the presence of peptide” value in data set [3] is on record as “not altered”. Further, the hemolytic activity result in data set [4] is reported as “practically devoid of hemolytic activity”. In addition, the “cytotoxicity on PBMCs” value in data set [5] is “minor damage”. In addition, the IC50 in data set [6] was greater than 50 µM; in data set [7], 6.74 µM; in [8], 7.66 µM. Moreover, the values for the concentration for an effect of 90% (IC90) in [6], in data set [7] and in data set [8] were greater than 50 µM, 12.5 µM and 30.1 µM, respectively. The “reduction of infectivity, MeV” value in data set [6] (cell pretreatment assay, peptide 25 μM) is reported as “over 40%”. In addition, the “effect on MeV in the virus pretreatment assay” value in data set [6] (virus pretreatment assay) is “not affected”. In addition, the “%Helix in DPC” value in [9] (Table 1) and in data set [9] (Table 2) was 42% in each case.
With `CC[C@H](C)[C@H](NC(=O)[C@H](CCCNC(=N)N)NC(=O)[C@H]1C[C@H](O)CN1C(=O)[C@@H](CC(C)C)NC(=O)[C@H](Cc1ccccc1)NC(=O)[C@H](CCCCN)NC(=O)[C@H](CO)NC(=O)[C@H](Cc1ccccc1)NC(=O)[C@H](Cc1c[nH]c2ccccc12)NC(=O)[C@@H]1CCCN1C(=O)[C@@H](NC(=O)[C@@H](N)Cc1ccccc1)C(C)C)C(=O)N[C@@H](CC(C)C)C(N)=O` [TL5, H-Phe-Val-Pro-Trp-Phe-Ser-Lys-Phe-DLeu-DHyp-Arg-Ile-Leu-NH2] (H-FVPWFSKF[dL][dHyp]RIL-NH2), the CC50 in [1] was greater than 100 µM. The IC50 in data set [6], in data set [7], in [10], in data set [8] and in data set [11] was greater than 50 µM in each case. Moreover, the concentration for an effect of 90% (IC90) in data set [6], in [7], in data set [10], in data set [8] and in data set [11] was greater than 50 µM throughout. Moreover, the “%Helix in DPC” value in data set [9] (Table 2) is reported as 9%.
In the case of `CCCC[C@H](NC(=O)[C@@H](CC(C)C)NC(=O)[C@H](Cc1ccccc1)NC(=O)[C@H](CCCCN)NC(=O)[C@H](CO)NC(=O)[C@H](Cc1ccccc1)NC(=O)[C@H](Cc1c[nH]c2ccccc12)NC(=O)[C@@H]1CCCN1C(=O)[C@@H](NC(=O)[C@@H](N)Cc1ccccc1)C(C)C)C(=O)N[C@@H](CCCNC(=N)N)C(=O)N[C@H](C(=O)N[C@@H](CC(C)C)C(N)=O)[C@@H](C)CC` [TL6, H-Phe-Val-Pro-Trp-Phe-Ser-Lys-Phe-DLeu-Nle-Arg-Ile-Leu-NH2] (H-FVPWFSKF[dL][Nle]RIL-NH2), the CC50 in [1] was 64.5 µM. The “cytotoxicity on PBMCs” value in data set [5] is “minor damage”. Besides, the half-maximal inhibitory concentration (IC50) is 34.6 µM in data set [6]; 2.66 µM in [7]; 32.4 µM in data set [10]; 2.08 µM in data set [8]; 0.97 µM in [11]. In addition, the IC90 was greater than 50 µM in data set [6]; 9.34 µM in [7]; greater than 50 µM in data set [10]; 13.1 µM in [8]; 10 µM in data set [11]. In addition, in data set [9] (Table 2), the “%Helix in DPC” value was 51%.
As to `CCCC[C@H](NC(=O)[C@@H](CC(C)C)NC(=O)[C@H](Cc1ccccc1)NC(=O)[C@H](CCCCN)NC(=O)[C@H](CO)NC(=O)[C@H](Cc1ccccc1)NC(=O)[C@H](Cc1c[nH]c2ccccc12)NC(=O)[C@@H]1CCCN1C(=O)[C@@H](NC(=O)[C@H](Cc1ccccc1)NC(=O)[C@@H](N)CSCC(=O)NCCOCCOCCOCCOCCC(=O)O[C@H]1CC[C@@]2(C)C(=CC[C@H]3[C@@H]4CC[C@H]([C@H](C)CCCC(C)C)[C@@]4(C)CC[C@@H]32)C1)C(C)C)C(=O)N[C@@H](CCCNC(=N)N)C(=O)N[C@H](C(=O)N[C@@H](CC(C)C)C(N)=O)[C@@H](C)CC` [TL6.3, H-[Cholesterol-PEG4]-Cys-Phe-Val-Pro-Trp-Phe-Ser-Lys-Phe-DLeu-Nle-Arg-Ile-Leu-NH2] (H-C(X1)FVPWFSKF[dL][Nle]RIL-NH2; N-terminus assumed), in [1], the CC50 is greater than 100 µM. Moreover, the “cytotoxicity on PBMCs” value in data set [5] is “minor damage”. Moreover, in [6], 22.3 µM corresponded to half-maximal inhibition (IC50) and the IC90 stood at 31.1 µM. Moreover, in data set [7], the concentration for half-maximal inhibition (IC50) was 2.55 µM and the concentration for an effect of 90% (IC90) was found to be 5.89 µM.
On to `CCCCCCCCCCC(=O)N[C@@H](Cc1ccccc1)C(=O)N[C@H](C(=O)N1CCC[C@H]1C(=O)N[C@@H](Cc1c[nH]c2ccccc12)C(=O)N[C@@H](Cc1ccccc1)C(=O)N[C@@H](CO)C(=O)N[C@@H](CCCCN)C(=O)N[C@@H](Cc1ccccc1)C(=O)N[C@H](CC(C)C)C(=O)N[C@@H](CCCC)C(=O)N[C@@H](CCCNC(=N)N)C(=O)N[C@H](C(=O)N[C@@H](CC(C)C)C(N)=O)[C@@H](C)CC)C(C)C` [TL6.5, H-Undecanoic acid-Phe-Val-Pro-Trp-Phe-Ser-Lys-Phe-DLeu-Nle-Arg-Ile-Leu-NH2] (Undecanoyl-FVPWFSKF[dL][Nle]RIL-NH2), for which the CC50 in data set [1] is greater than 100 µM. The “cytotoxicity on PBMCs” value in data set [5] is “minor damage”. Besides, in [6], the IC50 came out at 10 µM and it took 29.2 µM to reach the 90% level (IC90). Further, in data set [7], the IC50 was less than 0.1 µM and the IC90 is less than 0.1 µM.
`CC[C@H](C)[C@H](NC(=O)[C@H](CCCNC(=N)N)NC(=O)C1(NC(=O)[C@@H](CC(C)C)NC(=O)[C@H](Cc2ccccc2)NC(=O)[C@H](CCCCN)NC(=O)[C@H](CO)NC(=O)[C@H](Cc2ccccc2)NC(=O)[C@H](Cc2c[nH]c3ccccc23)NC(=O)[C@@H]2CCCN2C(=O)[C@@H](NC(=O)[C@@H](N)Cc2ccccc2)C(C)C)Cc2ccccc2C1)C(=O)N[C@@H](CC(C)C)C(N)=O` [TL12, H-Phe-Val-Pro-Trp-Phe-Ser-Lys-Phe-DLeu-Aic-Arg-Ile-Leu-NH2] (H-FVPWFSKF[dL][Aic]RIL-NH2): the 50% cytotoxic concentration (CC50) in data set [1] is 8.28 µM. Moreover, the IC50 came out at 30.4 µM in data set [6]; 0.71 µM in data set [7]; 33.8 µM in data set [10]; 0.74 µM in data set [8]; 0.62 µM in [11]. Moreover, the IC90 in data set [6] is greater than 50 µM; in data set [7], 13.9 µM; in data set [10], greater than 50 µM; in [8], 20.9 µM; in data set [11], 13.2 µM. Also, the “%Helix in DPC” value in data set [9] (Table 2) is listed as 18%.
For the compound “H-FVQWFSKFLGRIL-NH2 [TL, H-Phe-Val-Gln-Trp-Phe-Ser-Lys-Phe-Leu-Gly-Arg-Ile-Leu-NH2, reference compound]”, the CC50 in data set [1] is 19.6 µM. Besides, the hemolytic activity entry in data set [4] was “practically devoid of hemolytic activity”. For the same compound, the “concentration showing residual hemolytic activity” value in data set [4] (red blood cells) is no less than 50 µM. In addition, the “cytotoxicity on PBMCs” value in [5] is listed as “minor damage”.

Source of the values: paper PMC8878748, “Broad-Spectrum Antiviral Activity of the Amphibian Antimicrobial Peptide Temporin L and Its Analogs” (International Journal of Molecular Sciences, 2022).
